Test results reported in ChEMBL document CHEMBL2029307, “Identification of aryl dihydrouracil derivatives as palm initiation site inhibitors of HCV NS5B polymerase” (Bioorg Med Chem Lett, 2012).

Legend:
[1] = test system: Hepatitis C virus subtype 1a; assay: Resistance ratio of IC50 for HCV genotype 1a NS5B polymerase C316Y mutant to IC50 for HCV genotype 1a wildtype NS5B polymerase
[2] = test system: Hepatitis C virus subtype 1a; assay: Resistance ratio of IC50 for HCV genotype 1a NS5B polymerase T448Y mutant to IC50 for HCV genotype 1a wildtype NS5B polymerase
[3] = Inhibition of HCV genotype 2b NS5B polymerase assessed as inhibition of [3H]UTP incorporation after 2 hrs by scintillation counting; parameters: species or system Hepatitis C virus subtype 2b
[4] = test system: Hepatitis C virus subtype 1a; assay: Resistance ratio of IC50 for HCV genotype 1a NS5B polymerase M423T mutant to IC50 for HCV genotype 1a wildtype NS5B polymerase
[5] = Inhibition of HCV genotype 2a NS5B polymerase assessed as inhibition of [3H]UTP incorporation after 2 hrs by scintillation counting; parameters: species or system Hepatitis C virus subtype 2a
[6] = Cytotoxicity against human HuH7 cells by MTT assay; format: cell-based, Huh-7; settings: read-out: TD50 (the source's name)
[7] = Inhibition of HCV genotype 1a H77 recombinant NS5B polymerase expressed in Escherichia coli DH5alpha assessed as inhibition of [3H]UTP incorporation after 2 hrs by scintillation counting; parameters: species or system Hepatitis C virus (isolate H77)
[8] = Inhibition of HCV genotype 1b BK recombinant NS5B polymerase expressed in Escherichia coli DH5alpha assessed as inhibition of [3H]UTP incorporation after 2 hrs by scintillation counting; parameters: species or system Hepatitis C virus (isolate BK)
Hepatitis C virus [9] = assay: Inhibition of HCV genotype 1b patient isolate recombinant NS5B polymerase expressed in Escherichia coli DH5alpha assessed as inhibition of [3H]UTP incorporation after 2 hrs by scintillation counting; parameters: species or system Hepatitis C virus subtype 1b
[10] = test system: Hepatitis C virus subtype 1a; assay: Resistance ratio of IC50 for HCV genotype 1a NS5B polymerase M414T mutant to IC50 for HCV genotype 1a wildtype NS5B polymerase
[11] = test system: Hepatitis C virus subtype 1a; assay: Resistance ratio of IC50 for HCV genotype 1a NS5B polymerase P495A mutant to IC50 for HCV genotype 1a wildtype NS5B polymerase
[12] = Inhibition of HCV genotype 3a NS5B polymerase assessed as inhibition of [3H]UTP incorporation after 2 hrs by scintillation counting; parameters: species or system Hepatitis C virus subtype 3a
Hepatitis C virus [13] = assay: Antiviral activity against HCV genotype 1b infected in HuH7 cells by SEAP reporter gene assay; format: functional, organism-based, Hepacivirus hominis; settings: Huh-7

COc1cc([N+](=O)[O-])c(N2CCC(=O)NC2=O)cc1C(C)(C)C
Ratio IC50 [1]: > 100 | Ratio IC50 [2]: 41 | IC50 [3]: > 200 µM | Ratio IC50 [4]: 5 | IC50 [5]: > 200 µM | CC50 [6]: > 50 µM | IC50 [7]: 0.58 µM | IC50 [8]: 0.36 µM | IC50 (Hepatitis C virus [9]): 0.4 µM | Ratio IC50 [10]: 24 | Ratio IC50 [11]: 5 | IC50 [12]: > 200 µM | EC50 (Hepatitis C virus [13]): 0.84 µM

COc1cc(N(C)C)c(N2CCC(=O)NC2=O)cc1C(C)(C)C
IC50 (Hepatitis C virus [9]): 6.7 µM

COc1cc(N)c(N2CCC(=O)NC2=O)cc1C(C)(C)C
IC50 (Hepatitis C virus [9]): 1.7 µM

CC(C)(C)c1cccc(N2CCC(=O)NC2=O)c1
IC50 (Hepatitis C virus [9]): 47 µM

COc1c(Br)cc(N2CCC(=O)NC2=O)cc1C(C)(C)C
IC50 (Hepatitis C virus [9]): 7.4 µM

COc1cc(NC(C)=O)c(N2CCC(=O)NC2=O)cc1C(C)(C)C
IC50 (Hepatitis C virus [9]): 6.5 µM

O=C1CCN(c2cccc(C(F)(F)F)c2)C(=O)N1
IC50 (Hepatitis C virus [9]): > 200 µM

COc1c(Br)cc(N2CCC(=O)N(C)C2=O)cc1C(C)(C)C
IC50 (Hepatitis C virus [9]): > 200 µM

COc1ccc(N2CCC(=O)NC2=O)cc1C(C)(C)C
IC50 (Hepatitis C virus [9]): 6.4 µM

CC(C)(C)c1cc(N2CCC(=O)NC2=O)ccc1O
IC50 (Hepatitis C virus [9]): 7.6 µM
